Literature values as cited in patent US8247435B2, “Formulations for treating human and animal diseases” (priority 2009, dated 2012).
Entries after “also recorded” stand apart in the source; their conditions may differ. Like-named read-outs stand apart in the source and are kept apart here. Values belong to the compound of their own block, whether it stands above or below them.

Legend:
[1] = 300 mg/day, 4 months
[2] = oral; MS patients on immunosuppressive or immunomodulatory therapies
[3] = highest dose 3000 mg/day
[4] = tested on: VEGF-dependent angiogenesis; conditions: VEGF-expressing CAMs
[5] = tested on: Candida; conditions: 600 mg orally 3 times a day for 15 days
[6] = humans; not identified at doses used
[7] = not given; remark: listed apart in the source
[8] = tested on: Reuber H35 hepatoma cells; conditions: radiation in the presence of genistein; irradiation alone factor 20
[9] = tested on: normal bladder cells; conditions: normal physiological range of urine excretion (10 μg/ml)
[10] = tested on: human umbilical vein endothelial cells (HUVECs); conditions: 10 microM genistein
[11] = tested on: HTB-186 medulloblastoma cell line
[12] = tested on: cells in vitro
[13] = tested on: non-small cell lung cancer
[14] = tested on: non-small cell lung cancer; conditions: with carboplatin and paclitaxel
[15] = not given; remark: listed apart in the source
[16] = tested on: rat 13762 mammary carcinoma; conditions: single agent, 40 mg/kg
[17] = 500 mg/m^2/day
[18] = tested on: ocular neovasculation; conditions: primates, systemic, twice weekly
[19] = tested on: human vascular endothelial cells; conditions: doses as low as
[20] = tested on: Lewis lung carcinoma; conditions: mice, day 20
[21] = cancer patients, 145 patients
[22] = not given; remark: listed apart in the source

Compound: O=C(O)CCCCC1CCSS1 (stereo not drawn) [ALA, alpha-lipoic acid]
patients who were responders or high responders [1]: 22 of the 39

Compound: CC(=O)O[C@H](CC(=O)[O-])C[N+](C)(C)C [ALC, Acetyl-L-carnitine]
patients with decreased fatigue intensity [2]: 63% | side effects and toxicities [3]: no toxicities were noted

Compound: COC1=C(OC)C(=O)C(C/C=C(\C)CC/C=C(\C)CC/C=C(\C)CC/C=C(\C)CC/C=C(\C)CC/C=C(\C)CC/C=C(\C)CC/C=C(\C)CC/C=C(\C)CCC=C(C)C)=C(C)C1=O [CoQ10, ubiquinone]
prevalence of memory loss on most recent follow-up (from 8% on initial visit): 4% | prevalence of peripheral neuropathy on most recent follow-up (from 10% on initial visit): 2% | prevalence of dyspnea on most recent follow-up (from 58% on initial visit): 12% | prevalence of myalgia on most recent follow-up (from 64% on initial visit): 6% | prevalence of fatigue on most recent follow-up (from 84% on initial visit, average 240 mg/day, statin discontinued): 16%

Compound: CC(=O)N[C@@H](CS)C(=O)O [NAC, N-Acetyl Cysteine]
total vessel number relative to VEGF controls [4]: nearly half | antifungal activity of peripheral blood monocytes (PBM) [5]: significantly enhanced

Compound: COc1cc(/C=C/C(=O)CC(=O)/C=C/c2ccc(O)c(OC)c2)ccc1O [curcumin]
maximum tolerated dose [6]: ≥ 8000 mg per day

mean plasma/serum genistein ([7]; American study, Western diet): 5.7 nmol/L | mean plasma/serum genistein ([7]; Japanese study): 248 nmol/L | plasma/serum genistein, range ([7]; Japanese study): 90 to 1204 nmol/L | excretion half-life ([7]; with soy supplementation): seven
Compound: O=c1c(-c2ccc(O)cc2)coc2cc(O)cc(O)c12 [genistein, 4′5,7-trihydroxyisoflavone]
factor by which survival was reduced [8]: 10000 | toxicity to normal bladder cells [9]: not exhibit toxicity | number of genes with altered expression of more than two fold [10]: 256 | increase of the antiproliferative effect of cisplatin [11]: 1.3 fold

Compound: Oc1ccc(C=Cc2cc(O)cc(O)c2)cc1 [resveratrol, 3,4′,5-trihydroxystilbene]
levels required for cancer chemopreventive effects in cells in vitro [12]: at least 5 μM

Compound: CC(C)[C@@H](CC[C@@H](C)[C@H]1CC[C@H]2[C@@H]3[C@H](O)C[C@H]4C[C@@H](NCCCNCCCCN)CC[C@]4(C)[C@H]3CC[C@]12C)OS(=O)(=O)O [squalamine]
patients with dose-limiting toxicity ([13]; 400 mg/m^2/day, arthralgia, myalgia, neutropenia): two of three | tolerability ([13]; continuously daily for 5 days with paclitaxel and carboplatin on day 1): well tolerated | objective responses, patients ([14]; 300 mg/m^2/day for one or more cycles, response = 50% or greater reduction in tumor size): 36% | patients with an objective response ([14]; all patients (11 of 36)): Thirty-one | tolerability ([15]; 384 mg/m^2/day, patients without prior exposure to squalamine): well-tolerated | best-tolerated dose ([15]; continuous intravenous infusion over 120 h, every 14 days, 19 patients): 192 mg/m^2/day | tumor growth delay [16]: modest effect | plasma concentrations relative to those required for antiangiogenic effects in preclinical studies [17]: at least an order of magnitude higher | tolerability [17]: well tolerated | dose producing inhibition of ocular neovasculation and partial regression of new vessels [18]: 12 mg/m^2 | dose that halted proliferation of human vascular endothelial cells [19]: 160 nM | number of lung metastases relative to controls [20]: reduced to half; also recorded: reduced by half

Compound: O=c1[nH]c(=O)n(C2CCCO2)cc1F (stereo not drawn) [tegafur alone, tegafur]
50% survival time [21]: 92 days

amount excreted in the normal urine daily ([22]; in vivo): About 30 mcg | quantity excreted ([22]; injected in a large dose up to 100 mcg): up to 90%
Compound: Cyanocobalamin [vitamin B12]

Compound: angiostatin
total vessel number relative to VEGF controls [4]: nearly half
